Patent publication US20250084041A1, “ANTIMICROBIAL COMPOUNDS AND METHODS” (Curza Global, LLC, priority 2021, published 2025)
Where a name gives a salt, the structure may show the parent alone.

Key:
E. coli S30 extract = experiment: E. coli S30 extract: inhibition of bacterial protein synthesis (luciferase); assay type: biochemical; details: 37° C. 1 hour
Description: E. coli S30 extract: Inhibition of bacterial protein synthesis was determined using the E. coli S30 Extract System for Circular DNA (Promega catalog #L-2010) and Luciferase Assay Reagent (Promega catalog #E1500) with slight modifications to a published protocol. Fyfe, C., Sutcliffe, J. A. and Grossman, T. H. (2012) “Development and characterization of a Pseudomonas aeruginosa in vitro coupled transcription-translation assay system for evaluation of translation inhibitors” J. Microbiol. Methods 90(3), 256-261.
Compounds were serial diluted in 0.5 mL microcentrifuge tubes by mixing and transferring 50 μL from the highest concentration to 50 μL of water, mixing and transferring 50 μL of this 2-fold dilution to 50 μL of water. This mixing and transferring was repeated so that there are a total of 8 tubes with serial dilutions of compound at 10× the desired screening concentration that are ultimately diluted to 1× by the addition of S30 luciferase synthesis mixture. Serial dilutions of compounds were added (2 μL) to wells in a black round bottom 96-well plate. Water (2 μL) was used as a “no inhibitor” control in 4 wells/plate. No DNA control reaction mixture (20 μL; see below) was used as a control in 4 wells/plate for background luminescence. S30 luciferase synthesis mixture (18 μL; see below) was added to wells with compounds or water mixture and incubated at 37° C. for 1 hour. Reactions were stopped by transferring to 4° C. refrigerator for 5 minutes then 25 μL of luciferase activity mix was added. Luminescence was measured using a BioTek Synergy HTX plate reader. % Inhibition was determined relative to no inhibitor controls.
• 445 μL S30 extract, circular • 712 μL S30 Premix without amino acids • 4.45 μL pBESTluc™ DNA (1 μg/μL) • 78 μL complete amino acid mixture • 267 μL water
• 20 μL S30 extract, circular • 32 μL S30 Premix without amino acids • 7 μL complete amino acid mixture • 21 μL water

[1] = molecular target: Rabbit Reticulocyte Lysate; experiment: Rabbit Reticulocyte Lysate: inhibition of eukaryotic protein synthesis (luciferase); assay type: biochemical; details: 30° C. 90 minutes, read-out: Retic. IC50
Description: Inhibition of eukaryotic protein synthesis was determined using the Rabbit Reticulocyte Lysate System, Nuclease-Treated from Promega (catalog #L-4960) with slight modifications to the manufacturer's protocol. Compounds were serial diluted in 0.5 mL microcentrifuge tubes by mixing and transferring 50 μL from the highest concentration to 50 μL of water, mixing and transferring 50 μL of this 2-fold dilution to 50 μL of water. This mixing and transferring was repeated so that there are a total of 8 tubes with serial dilutions of compound at 10× the desired screening concentration that are ultimately diluted to 1× by the addition of rabbit reticulocyte luciferase synthesis mixture. Serial dilutions of compounds were added ([…]) to wells in a black round bottom 96-well plate. Water (2.5 μL) was used as a “no inhibitor” control in 4 wells/plate. No RNA control reaction mixture ([…]; see below) was used as a control in 4 wells/plate for background luminescence. Rabbit reticulocyte luciferase synthesis mixture (22.5 μL; see below) was added to wells with compounds or water mixture and incubated at 30° C. for 90 minutes. Luciferase assay reagent (25 μL) was added with luminescence measured using a BioTek Synergy HTX plate reader. % Inhibition was determined relative to no inhibitor controls.
• 1,000 μL rabbit reticulocyte lysate • 5.7 μL Luciferase Control RNA (1 μg/μL) • 26 μL complete amino acid mixture • 395 μL water
• 70 μL rabbit reticulocyte lysate • 2 μL complete amino acid mixture • 28 μL water

A. baumannii (Ab) = experiment: Broth microdilution MIC, A. baumannii; assay type: cell-based; details: Acinetobacter baumannii, read-out: Ab + bicarb 25 (MIC)
Description: (§1) A certified BSL-2 laboratory was used for testing. Compounds were evaluated using the broth microdilution minimum inhibitory concentration (MIC) and minimum bactericidal concentration (MBC) assays defined by Clinical and Laboratory Standards Institute (CLSI) in the M26-A guideline against S. aureus (Sa), E. coli (Ec), K. pneumoniae (Kp), A. baumannii (Ab), E. faecalis (Ef) and P. aeruginosa (Pa).
(§2) MICs were determined using the Clinical Laboratory and Standards Institute (CLSI) Broth Microdilution Method with slight modification. Clinical and Laboratory Standards Institute (2012). “Methods for dilution antimicrobial susceptibility tests for bacteria that grow aerobically; approved standard, 9th ed. M07-A9. Clinical and Laboratory Standards Institute, Wayne, PA.” Serial two-fold dilutions of compounds are prepared in sterile clear round-bottom 96-well plates.
(§3) To prepare microdilution trays, two-fold dilutions of antimicrobial agent are prepared in growth medium: Cation-Adjusted Mueller-Hinton Broth (CAMHB), or CAMHB supplemented with sodium bicarbonate (25 mM final concentration prepared from a 1.0 M stock solution) or CAMHB supplemented with heat inactivated human serum (Fisher Cat. #BP2657100) 0-50% by adding 200 μL of the highest concentration to be tested (64 μg/mL, for example) in row A, mixing and transferring 100 μL from row A to 100 μL growth medium in row B, then repeating the mixing and transferring through row H of the 96-well plate, discarding the excess 100 μL remaining. This slight modification to the CLSI protocol enables evaluation of MICs for 3 compounds per plate in triplicate, albeit with only 8 compound dilutions (CLSI protocol enables 2 compounds in triplicate with 10 dilutions). Bacterial suspensions are added to a final concentration of 5×10^4 CFU/well by adding 5 μL of a 1:10 dilution of a 0.5 McFarland suspension (1×10^8 CFU/mL) for each bacterium evaluated. Bacterial suspensions were prepared using the growth method described by CLSI. Well-isolated colonies (3-5 from an agar plate) were selected using a sterile loop and used to inoculate a tube containing 4 mL of CAMHB. The cultures are incubated at 35±2° C. until it achieves or exceeds the turbidity of the 0.5 McFarland standard, determined by measuring A600nm (usually two to six hours). When growth exceeds a 0.5 McFarland standard, the turbidity is adjusted with broth to be equivalent to a 0.5 McFarland standard.

E. faecalis (Ef) = experiment: Broth microdilution MIC, E. faecalis; assay type: cell-based; details: Enterococcus faecalis, read-out: Ef + bicarb 25 (MIC)
Description: as §1, §2, §3

S. aureus (Sa) = experiment: Broth microdilution MIC, S. aureus; assay type: cell-based; details: Staphylococcus aureus, read-out: Sa + bicarb 25 (MIC)
Description: as §1, §2, §3

P. aeruginosa (Pa) = experiment: Broth microdilution MIC, P. aeruginosa; assay type: cell-based; details: Pseudomonas aeruginosa, read-out: Pa + bicarb 25 (MIC)
Description: as §1, §2, §3

E. coli (Ec) = experiment: Broth microdilution MIC, E. coli; assay type: cell-based; details: Escherichia coli, read-out: E. coli + bicarb 25 (MIC)
Description: as §1, §2, §3

SMILES	IC50 (E. coli S30 extract)	IC50 [1]	MIC (A. baumannii (Ab))	MIC (E. faecalis (Ef))	MIC (S. aureus (Sa))	MIC (P. aeruginosa (Pa))	MIC (E. coli (Ec))
CC(C)(N)C(=O)N1CCN(C(=O)Nc2ccn(C3=CCC(CN4C[C@@H]5[C@@H](N)[C@@H]5C4)CC3)c(=O)n2)CC1 (single isomer, unassigned) [Compound 34, 4-(2-Amino-2-methylpropanoyl)-N-(1-(4-(((exo)-6-amino-3-azabicyclo[3.1.0]hexan-3-yl)methyl)cyclohex-1-en-1-yl)-2-oxo-1,2-dihydropyrimidin-4-yl)piperazine-1-carboxamide hydrochloride salt]	< 0.5 µM	≥ 1 µM	–	–	–	–	–
CC1(N)CCN(CC2CC=C(n3ccc(NC(=O)N4CCN(C(=O)C(C)(C)N)CC4)nc3=O)CC2)CC1 (single isomer, unassigned) [Compound 38, 4-(2-Amino-2-methylpropanoyl)-N-(1-(4-((4-amino-4-methylpiperidin-1-yl)methyl)cyclohex-1-en-1-yl)-2-oxo-1,2-dihydropyrimidin-4-yl)piperazine-1-carboxamide hydrochloride salt]	< 0.5 µM	≥ 1 µM	–	–	–	–	–
CC(C)(N)C(=O)N1CCN(C(=O)Nc2ccn(C3=CCC(CN[C@H]4CC[C@H](N)CC4)CC3)c(=O)n2)CC1 (single isomer, unassigned) [Compound 40, trans-4-(2-Amino-2-methylpropanoyl)-N-(1-(4-(((4-aminocyclohexyl)amino)methyl)cyclohex-1-en-1-yl)-2-oxo-1,2-dihydropyrimidin-4-yl)piperazine-1-carboxamide hydrochloride salt]	< 0.5 µM	≥ 1 µM	–	–	–	–	–
CC(C)(N)C(=O)N1CCN(C(=O)Nc2ccn(C3=CCC(CN4CCCC(N)CC4)CC3)c(=O)n2)CC1 (single isomer, unassigned) [Compound 42, 4-(2-Amino-2-methylpropanoyl)-N-(1-(4-((4-aminoazepan-1-yl)methyl)cyclohex-1-en-1-yl)-2-oxo-1,2-dihydropyrimidin-4-yl)piperazine-1-carboxamide hydrochloride salt]	< 0.5 µM	≥ 1 µM	–	–	–	–	–
CC(C)(N)C(=O)N1CCN(C(=O)Nc2ccn(C3CCC(CN4CC(N)C4)CC3)c(=O)n2)CC1 (stereo not shown) [Compound 10, 4-(2-Amino-2-methylpropanoyl)-N-(1-(4-((3-aminoazetidin-1-yl)methyl)cyclohexyl)-2-oxo-1,2-dihydropyrimidin-4-yl)piperazine-1-carboxamide hydrochloride salt]	≥ 1 µM	≥ 1 µM	–	–	–	–	–
CC1(N)CCN(CC2CCC(n3ccc(NC(=O)N4CCN(C(=O)C(C)(C)N)CC4)nc3=O)CC2)CC1 (stereo not shown) [Compound 15, 4-(2-amino-2-methylpropanoyl)-N-(1-(4-((4-amino-4-methylpiperidin-1-yl)methyl)cyclohexyl)-2-oxo-1,2-dihydropyrimidin-4-yl)piperazine-1-carboxamide hydrochloride salt]	< 0.5 µM	≥ 1 µM	> 32 µg/mL	> 32 µg/mL	–	–	–
CC(C)(N)C(=O)N1CCN(C(=O)Nc2ccn(C3=CCC(CN4C[C@@H]5[C@H](N)[C@@H]5C4)CC3)c(=O)n2)CC1 (stereo partly drawn) [Compound 22, endo-4-(2-Amino-2-methylpropanoyl)-N-(1-(4-((6-amino-3-azabicyclo[3.1.0]hexan-3-yl)methyl)cyclohex-1-en-1-yl)-2-oxo-1,2-dihydropyrimidin-4-yl)piperazine-1-carboxamide hydrochloride salt]	< 0.5 µM	≥ 1 µM	< 8 µg/mL	8 to 32 µg/mL	< 8 µg/mL	> 32 µg/mL	–
CC1(N)CCN(CC2CC=C(n3ccc(NC(=O)N4CCN(C(=O)C(C)(C)N)CC4)nc3=O)CC2)CC1 (stereo not shown) [Compound 27, 4-(2-Amino-2-methylpropanoyl)-N-(1-(4-((4-amino-4-methylpiperidin-1-yl)methyl)cyclohex-1-en-1-yl)-2-oxo-1,2-dihydropyrimidin-4-yl)piperazine-1-carboxamide hydrochloride salt]	< 0.5 µM	≥ 1 µM	8 to 32 µg/mL	< 8 µg/mL	< 8 µg/mL	> 32 µg/mL	–
CC(C)(N)C(=O)N1CCN(C(=O)Nc2ccn(C3=CCC(CN4CCC(N)CC4)CC3)c(=O)n2)CC1 (stereo not shown) [Compound 28, 4-(2-Amino-2-methylpropanoyl)-N-(1-(4-((4-aminopiperidin-1-yl)methyl)cyclohex-1-en-1-yl)-2-oxo-1,2-dihydropyrimidin-4-yl)piperazine-1-carboxamide hydrochloride salt]	0.5 to 1 µM	≥ 1 µM	> 32 µg/mL	> 32 µg/mL	–	–	–
CC(C)(N)C(=O)N1CCN(C(=O)Nc2ccn(C3=CCC(CN4CC5CC5(N)C4)CC3)c(=O)n2)CC1 (stereo not shown) [Compound 29, 4-(2-Amino-2-methylpropanoyl)-N-(1-(4-((1-amino-3-azabicyclo [3.1.0]hexan-3-yl)methyl)cyclohex-1-en-1-yl)-2-oxo-1,2-dihydropyrimidin-4-yl)piperazine-1-carboxamide hydrochloride salt]	0.5 to 1 µM	–	–	–	–	–	–
CC(C)(N)C(=O)N1CCN(C(=O)Nc2ccn([C@H]3CC[C@H](CN(CCF)[C@H]4CC[C@H](N)CC4)CC3)c(=O)n2)CC1 [Compound 49, trans-trans-4-(2-amino-2-methylpropanoyl)-N-(1-(4-(((4-aminocyclohexyl)(2-fluoroethyl)amino)methyl)cyclohexyl)-2-oxo-1,2-dihydropyrimidin-4-yl)piperazine-1-carboxamide hydrochloride salt]	< 0.5 µM	≥ 1 µM	> 32 µg/mL	8 to 32 µg/mL	< 8 µg/mL	–	< 8 µg/mL
